According to patent US20250152559A1, “METHODS FOR TREATING MYC-AMPLIFIED CANCER” (The Governing Council of the University of Toronto, priority 2023, published 2025):

System: SU_MB002 cells
Experiment: Mass spectrometry-based metabolomics and lipidomics of treated cells
Type: cell-based, human
Experimental: For metabolome and lipidome profiling, ˜10^6 cells and tissues were washed with PBS prior to collection and immediately flash frozen. For metabolite extraction, 1 mL of cold acetonitrile/methanol/water (2:2:1; v:v:v) was added to the cell pellets followed by 3 cycles of freezing in liquid N2 for 1 min, followed by 15 min of thawing in a sonicating ice/water bath. This was followed by incubation at −20° C. and centrifugation at 16,000×g for 15 min at 4° C. […] to fully precipitate protein. Supernatants were transferred to another tube and dried in a vacuum concentrator. For lipid extraction, cells were resuspended in 30 μL of water, followed by three cycles of freeze/thawing and sonication. To this, 225 μL of methanol was added, followed by brief vortexing and addition of 750 μL of methyl tert-butyl ether (MTBE). Samples were incubated at room temperature for 1 hr with gentle shaking. To induce phase-separation, 188 μL of water was added, samples were vortexed for 20 s and centrifuged for 5 min at 16,000×g. The upper and lower phases were collected and transferred to another tube and dried down in a vacuum concentrator. The dry metabolome and lipidome extracts were stored at −80° C. prior to analysis by liquid chromatography-mass spectrometry (LC-MS). Metabolite extracts were reconstituted in LC-MS grade water/acetonitrile (50:50; v:v), vortexed for 1 min, sonicated for 15 min, and centrifuged at 16,000×g and 4° C. for 15 min to remove insoluble debris. The lipidome extracts were reconstituted in acetonitrile/2-propanol (50:50; v:v), vortexed for 1 min, sonicated for 15 min, and centrifuged at 16,000×g and 10° C. for 15 min to remove insoluble debris.
The LC-MS metabolomics and lipidomics analyses of the 3 NSC and 3 MB cell lines and tissues were performed on a UPLC-MS system consisting of an Orbitrap IQ-X Tribrid coupled to a Horizon Vanquish UPLC system (Thermo Fisher Scientific). The lipidomics analysis was conducted in positive-ion mode with a spray voltage of 3.5 kV while the metabolomics analysis was conducted in negative-ion mode with a spray voltage of −2.5 kV. The following source conditions were identical in both analyses and were set as follows: Sheath gas flow rate, 50 arbitrary units; Aux. gas flow rate, 10 arbitrary units; Sweep gas flow rate, 1 arbitrary unit; Ion transfer tube temp., 300° C.; Vaporizer temp., 350° C. The following acquisition parameters were used for MS1 analysis in both methods: resolution, 120,000, AGC target, 4e5. The maximum IT was set at […] for the lipidomics analysis and 200 ms for the metabolomics analysis. Data-dependent MS/MS parameters for the lipidomics analyses: resolution, 30,000; AGC target, 7.5e4; maximum IT, Dynamic (54 ms); time between Master Scans, 0.6 s; isolation window, 1.0 m/z; NCE/stepped nce, 20, 30, 40; intensity threshold, 5e4; exclude isotopes, on; dynamic exclusion, 3.0 s. Data-dependent MS/MS parameters for the metabolomics analyses: resolution. 15,000; AGC target, 7.5e4; maximum IT, Dynamic (22 ms); time between Master Scans, 0.6 s; isolation window, 1.0 m/z; NCE/stepped nce, 20, 30, 40, 50; intensity threshold, 5e4; exclude isotopes, on; dynamic exclusion, 5.0 s. To increase the total number of MS/MS spectra in the lipidomics analysis, five runs with iterative MS/MS exclusions were performed using the AcquireX function in Xcalibur (Thermo Fisher Scientific). In the metabolomics analysis, three runs with iterative MS/MS exclusions were performed using the AcquireX function. For the lipidomics analysis, chromatographic separation was achieved using a Waters Acquity UPLC CSH C18 (100 mm×2.1 mm i.d.; 1.7 μm) column injecting 2 μL. […] The column was equilibrated for 2 min at 15% B. The flow rate was set to 250 μL/min. The column temperature was maintained at 65° C. For the metabolomics analysis, chromatographic separation was achieved using a SeQuant ZIC-PHILIC (150 mm×2.1 mm i.d.; 5 μm) column injecting 2 μL. […]

[1] = SU_MB002 cells treated with BAY (IC90)
[2] = SU_MB002 cells, BAY (IC90) vs vehicle

## CCn1c(CO)nn(-c2cc(O[C@@H](C)C(F)(F)F)c(C(=O)Nc3c(F)cccc3Cl)cc2F)c1=O [BAY2402234]
[1]
  2-Aminoadipic acid normalized peak intensity, BAY average: 26487
  Argininosuccinic acid normalized peak intensity, BAY average: 114194
  Asparagine normalized peak intensity, BAY average: 172639.25
  Aspartic Acid normalized peak intensity, BAY average: 214198
  CDP normalized peak intensity, BAY average: 5476872.25
  CTP normalized peak intensity, BAY average: 810207.75
  Citramalate normalized peak intensity, BAY average: 4459.5
  Citrate normalized peak intensity, BAY average: 76953
  Creatine phosphate normalized peak intensity, BAY average: 619707.25
  Cystathionine normalized peak intensity, BAY average: 3636
  Dihydroorotic Acid normalized peak intensity, BAY average: 462202
  Gluconic acid normalized peak intensity, BAY average: 1081576.5
  Glutamate normalized peak intensity, BAY average: 26227101.8
  Glyceraldehyde-3-phosphate normalized peak intensity, BAY average: 78313.3333
  Hydroxyglutaric acid normalized peak intensity, BAY average: 37974496.3
  Inositol normalized peak intensity, BAY average: 40859409.5
  N-Acetyl glucosamine monophosphate normalized peak intensity, BAY average: 8697678.5
  N-Acetylglutamic Acid normalized peak intensity, BAY average: 189382
  N-Carbamoyl Aspartic Acid normalized peak intensity, BAY average: 31547.3333
  PE O-32:1 normalized peak intensity, BAY average: 2472183.74
  PE O-32:2 normalized peak intensity, BAY average: 11446617.4
  PE O-34:1 normalized peak intensity, BAY average: 3839410.03
  PE O-34:2 normalized peak intensity, BAY average: 92503648
  PE O-36:1 normalized peak intensity, BAY average: 531398.036
  PE O-36:2 normalized peak intensity, BAY average: 102597837
  PE O-36:4 normalized peak intensity, BAY average: 258977958
  PE O-38:4 normalized peak intensity, BAY average: 210123122
  PE O-40:2 normalized peak intensity, BAY average: 10612336
  PE O-40:4 normalized peak intensity, BAY average: 226507622
  PE O-42:3 normalized peak intensity, BAY average: 911901.571
  PE O-42:4 normalized peak intensity, BAY average: 13670542.5
  PE O-42:5 normalized peak intensity, BAY average: 14681375.2
  Proline normalized peak intensity, BAY average: 129729612
  Saccharopine normalized peak intensity, BAY average: 11126.3333
  Sarcosine normalized peak intensity, BAY average: 178498.5
  TG(42:0) normalized peak intensity, BAY average: 15967351.9
  TG(44:0) normalized peak intensity, BAY average: 64916660.2
  TG(44:1) normalized peak intensity, BAY average: 72494555.5
  TG(44:2) normalized peak intensity, BAY average: 23582680.7
  TG(46:3) normalized peak intensity, BAY average: 35191113.7
  TG(48:0) normalized peak intensity, BAY average: 234715455
  TG(48:1) normalized peak intensity, BAY average: 2421262.9
  TG(48:3) normalized peak intensity, BAY average: 16895583.2
  TG(48:4) normalized peak intensity, BAY average: 33300539.1
  TG(48:5) normalized peak intensity, BAY average: 2707280.56
  TG(50:0) normalized peak intensity, BAY average: 235218307
  TG(50:2) normalized peak intensity, BAY average: 1182402177
  TG(50:3) normalized peak intensity, BAY average: 595402718
  TG(52:1) normalized peak intensity, BAY average: 649526618
  TG(52:5) normalized peak intensity, BAY average: 9440406.47
  TG(54:1) normalized peak intensity, BAY average: 104051454
  TG(54:6) normalized peak intensity, BAY average: 36773026.8
  TG(56:7) normalized peak intensity, BAY average: 13481295.5
  UDP normalized peak intensity, BAY average: 964954.5
  UDP-Glucose normalized peak intensity, BAY average: 609888.333
  UTP normalized peak intensity, BAY average: 215065
  Uridine normalized peak intensity, BAY average: 26154.5
  Xanthosine normalized peak intensity, BAY average: 617698.75
  alpha-Ketoglutaric acid normalized peak intensity, BAY average: 112368
  dCTP normalized peak intensity, BAY average: 109835
  dTDP normalized peak intensity, BAY average: 13149248
[2]
  2-Aminoadipic acid Log2 Fold Change: (BAY)/(DMSO): −1.831
  Argininosuccinic acid Log2 Fold Change: (BAY)/(DMSO): 0.9374
  Asparagine Log2 Fold Change: (BAY)/(DMSO): −2.552
  Aspartic Acid Log2 Fold Change: (BAY)/(DMSO): 0.6679
  CDP Log2 Fold Change: (BAY)/(DMSO): −1.056
  CTP Log2 Fold Change: (BAY)/(DMSO): −1.688
  Citramalate Log2 Fold Change: (BAY)/(DMSO): −1.15
  Citrate Log2 Fold Change: (BAY)/(DMSO): −2.924
  Creatine phosphate Log2 Fold Change: (BAY)/(DMSO): −0.8039
  Cystathionine Log2 Fold Change: (BAY)/(DMSO): −1.709
  Dihydroorotic Acid Log2 Fold Change: (BAY)/(DMSO): −2.147
  Gluconic acid Log2 Fold Change: (BAY)/(DMSO): 2.808
  Glutamate Log2 Fold Change: (BAY)/(DMSO): 0.5525
  Glyceraldehyde-3-phosphate Log2 Fold Change: (BAY)/(DMSO): −1.224
  Hydroxyglutaric acid Log2 Fold Change: (BAY)/(DMSO): 7.211
  Inositol Log2 Fold Change: (BAY)/(DMSO): −0.7576
  N-Acetyl glucosamine monophosphate Log2 Fold Change: (BAY)/(DMSO): −0.5317
  N-Acetylglutamic Acid Log2 Fold Change: (BAY)/(DMSO): 1.218
  N-Carbamoyl Aspartic Acid Log2 Fold Change: (BAY)/(DMSO): −2.853
  PE O-32:1 Log2 Fold Change: (BAY)/(DMSO): 1.371
  PE O-32:2 Log2 Fold Change: (BAY)/(DMSO): 1.59
  PE O-34:1 Log2 Fold Change: (BAY)/(DMSO): 0.7945
  PE O-34:2 Log2 Fold Change: (BAY)/(DMSO): 1.319
  PE O-36:1 Log2 Fold Change: (BAY)/(DMSO): 0.9815
  PE O-36:2 Log2 Fold Change: (BAY)/(DMSO): 0.7435
  PE O-36:4 Log2 Fold Change: (BAY)/(DMSO): 0.9655
  PE O-38:4 Log2 Fold Change: (BAY)/(DMSO): 0.6388
  PE O-40:2 Log2 Fold Change: (BAY)/(DMSO): 0.4723
  PE O-40:4 Log2 Fold Change: (BAY)/(DMSO): 0.2968
  PE O-42:3 Log2 Fold Change: (BAY)/(DMSO): 0.5216
  PE O-42:4 Log2 Fold Change: (BAY)/(DMSO): 0.6964
  PE O-42:5 Log2 Fold Change: (BAY)/(DMSO): 0.2828
  Proline Log2 Fold Change: (BAY)/(DMSO): 11.27
  Saccharopine Log2 Fold Change: (BAY)/(DMSO): −1.712
  Sarcosine Log2 Fold Change: (BAY)/(DMSO): −0.4764
  TG(42:0) Log2 Fold Change: (BAY)/(DMSO): 2.859
  TG(44:0) Log2 Fold Change: (BAY)/(DMSO): 2.947
  TG(44:1) Log2 Fold Change: (BAY)/(DMSO): 3.568
  TG(44:2) Log2 Fold Change: (BAY)/(DMSO): 4.285
  TG(46:3) Log2 Fold Change: (BAY)/(DMSO): 4.265
  TG(48:0) Log2 Fold Change: (BAY)/(DMSO): 1.816
  TG(48:1) Log2 Fold Change: (BAY)/(DMSO): 2.541
  TG(48:3) Log2 Fold Change: (BAY)/(DMSO): 3.131
  TG(48:4) Log2 Fold Change: (BAY)/(DMSO): 3.96
  TG(48:5) Log2 Fold Change: (BAY)/(DMSO): 5.389
  TG(50:0) Log2 Fold Change: (BAY)/(DMSO): 1.574
  TG(50:2) Log2 Fold Change: (BAY)/(DMSO): 1.881
  TG(50:3) Log2 Fold Change: (BAY)/(DMSO): 2.346
  TG(52:1) Log2 Fold Change: (BAY)/(DMSO): 1.065
  TG(52:5) Log2 Fold Change: (BAY)/(DMSO): 2.418
  TG(54:1) Log2 Fold Change: (BAY)/(DMSO): 0.738
  TG(54:6) Log2 Fold Change: (BAY)/(DMSO): 1.79
  TG(56:7) Log2 Fold Change: (BAY)/(DMSO): 1.418
  UDP Log2 Fold Change: (BAY)/(DMSO): −3.019
  UDP-Glucose Log2 Fold Change: (BAY)/(DMSO): −2.77
  UTP Log2 Fold Change: (BAY)/(DMSO): −3.375
  Uridine Log2 Fold Change: (BAY)/(DMSO): −4.037
  Xanthosine Log2 Fold Change: (BAY)/(DMSO): 3.486
  alpha-Ketoglutaric acid Log2 Fold Change: (BAY)/(DMSO): −1.687
  dCTP Log2 Fold Change: (BAY)/(DMSO): 2.27
  dTDP Log2 Fold Change: (BAY)/(DMSO): 1.896
